Tests used:
rat type I GnRHR = molecular target: T1, rat type I GnRHR (Rattus norvegicus, UniProt P30969); experiment: Total inositol phosphate production in HEK293 cells stably expressing rat type I GnRHR; assay type: cell-based; conditions: n=2, read-out: EC50, stimulation of inositol phosphate production
T1 construct: expressed in transfected cells
T1 sequence (P30969 1-327): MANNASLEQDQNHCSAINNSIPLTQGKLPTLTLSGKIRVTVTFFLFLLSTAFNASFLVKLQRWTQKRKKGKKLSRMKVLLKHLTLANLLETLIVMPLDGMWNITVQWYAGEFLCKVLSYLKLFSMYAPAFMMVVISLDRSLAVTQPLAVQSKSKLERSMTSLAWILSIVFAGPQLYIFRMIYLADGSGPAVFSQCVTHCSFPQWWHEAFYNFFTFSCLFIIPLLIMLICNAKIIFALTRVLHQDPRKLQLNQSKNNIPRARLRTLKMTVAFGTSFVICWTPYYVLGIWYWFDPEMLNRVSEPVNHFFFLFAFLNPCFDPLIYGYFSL
Description: A HEK293 stable cell line expressing the rat type I GnRHR developed in our laboratory was used for the inositol phosphate production assays. This cell line was maintained in DMEM containing 10% fetal calf serum, glutamine and penicillin/streptomycin with the addition of G418 at 500 μg/ml throughout culture. Where required, plates were coated with Poly-L-Lysine to enhance adherence to plasticware during assay.
Measurement of Total Inositol Phosphate Production
Rat type I GnRH receptive expressing HEK293 cells were plated out onto 12 well plates and incubated at 37° C., 5% CO2 for 24 hours, then incubated in special DMEM containing 1% dialysed FCS (with glutamine and penicillin/streptomycin) and 1 μl/well of myo-[2-^3H]inositol for a further 48 hours. After aspiration of media and washing with incubation buffer, a further 500 μl buffer containing 10 mM LiCl was added to the plates and then incubated at 37° C. for 30 mins. 1 μM agonist was added to each well to a final concentration of 0.1 μM and the plates were incubated under the same conditions for a further 1 hour. The reaction was terminated with 500 μl 10 mM formic acid, incubated at 4° C. for 30 mins. […] After addition of formic acid, ammonium formate (1 ml, 0.1M, 1M) and vortexing, 800 μl of the supernatant was counted with scintillation fluid.

[1] = molecular target: T2, type I human GnRH receptor (Homo sapiens, UniProt P30968); experiment: Membrane binding assay of GnRH agonist-progesterone conjugate, COS-1 cells transfected with hGnRH-R, 125I[His5,D-Tyr6]GnRH; conditions: n=1, data not shown, read-out: ED50, binding to type I human GnRH receptor
T2 construct: expressed in transfected cells; host or cells: COS-1 cells (membranes)
T2 sequence (P30968 1-328): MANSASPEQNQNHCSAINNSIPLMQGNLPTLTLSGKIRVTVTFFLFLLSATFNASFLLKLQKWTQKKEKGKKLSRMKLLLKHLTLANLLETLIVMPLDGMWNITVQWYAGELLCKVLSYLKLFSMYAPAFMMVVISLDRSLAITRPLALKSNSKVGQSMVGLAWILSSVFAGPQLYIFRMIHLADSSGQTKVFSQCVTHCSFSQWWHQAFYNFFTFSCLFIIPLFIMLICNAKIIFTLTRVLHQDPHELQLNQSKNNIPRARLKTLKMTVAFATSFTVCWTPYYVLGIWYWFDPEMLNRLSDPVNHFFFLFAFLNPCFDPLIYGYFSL
Description: Membrane binding assay of GnRH agonist-progesterone conjugates was carried out on COS-1 cells transfected with hGnRH-R. COS-1 cells in 100 mm dishes were washed twice in HEPES modified DMEM and transfected with 15 μg DNA in filter-sterilised DEAE dextran with HEPES buffered saline, penicillin/streptomycin and DMEM. After five hours incubation at 37° C., the media was removed and replaced with DMEM containing penicillin/streptomycin, 2% FCS and 2% chloroquine 10 mM and plates were incubated for a further one hour. The media was aspirated, cells were washed and normal media was added until assay 24 hours later.
Membrane Binding Assay of GnRH agonist-Progesterone Conjugate:
Transfected COS-1 cells were washed in PBS, removed from plates and centrifuged at 1500 rpm for five mins to pellet cells. The PBS was aspirated and the cells were resuspended in homogenization buffer (20 mM Tris, 2 mM MgCl2, pH 7.2), vortexed and left on ice for 10 minutes. The cell suspension was transferred to a 7 ml homogeniser (Jencons (Scientific) Ltd., Leighton Buzzard, Buckinghamshire) and plunged 15 times with a loose plunger and 15 times with a tight plunger. The homogenized cells were then centrifuged at 4° C. for 10 mins at top speed and the supernatant was removed with a vacuum pump. […] Filters were then counted immediately on a gamma counter.

[2] = In vivo male rabbit study, disappearance of iodinated analogue from whole blood; conditions: iodinated compound i.v. into ear vein, male rabbit, whole blood
Description: In Vivo Studies in the Male Rabbit
To determine biological half-life of GnRH agonist-progesterone conjugates, 0.5 ml saline containing approximately 10,000,000 cpm of iodinated [D-Ala^6]GnRH or [D-Lys^6]GnRH-progesterone conjugate was injected as an i.v. bolus into the ear vein of a male rabbit. Rabbits were sedated with 0.4 ml Aceprom 10 (Milborrow Animal Health, Republic of South Africa) injected intramuscularly 3-4 minutes before start of experiment. A repeat injection was carried out after 2 hours. 1 ml blood samples were collected in heparinized tubes from an indwelling cannula placed in a vein of the contralateral ear. Whole blood was counted directly to determine disappearance from circulation. All experiments were carried out in accordance with Republic of South Africa regulations.

[3] = molecular target: progesterone binding globulin (PBG); experiment: Plasma protein binding assay, competition with [3H]progesterone in pregnant guinea pig plasma; conditions: read-out: IC50, inhibition of [3H]progesterone binding to PBG
Description: (§1) Plasma Protein Binding Assay
(§2) Plasma protein binding was determined by the competitive binding of steroid conjugates, in the presence of [1,2,6,7-^3H]progesterone or [^3H]cortisol, to pregnant guinea pig plasma or human pregnant serum respectively. 20 μl serum was diluted with 2 ml dextran-coated charcoal solution (0.25 g dextran T-70, 2.5 g charcoal decolorizing powder, activated acid washed [Merck Ltd., Lutterworth, Leicestershire] in 500 ml PBS) and incubated at room temperature. After 30 mins the suspension was centrifuged at 3000×g for 10 minutes, the supernatant was removed and the pellet was discarded. 100 μl of diluted serum was aliquoted into centrifuge tubes, followed by 1 pmol[^3H]steroid/100 μl PBS. 100 μl PBS (total binding) or 200 pmol/100 μl unlabelled competing ligand ([…]) was added to diluted serum in duplicate. Tubes were vortexed and incubated at room temperature for 1 hour, then for an additional 15 minutes on ice. A further 750 μl dextran-coated charcoal suspension was added and incubated for 10 minutes on ice, followed by centrifugation at 4° C. for 5 minutes. The supernatant fluid was counted.

[4] = molecular target: T3, cortisol binding globulin (CBG) (Homo sapiens, UniProt P08185); experiment: Plasma protein binding assay, competition with [3H]cortisol in human pregnant serum; conditions: data not shown, read-out: IC50, prevention of [3H]cortisol binding
T3 construct: from tissue; host or cells: human pregnant serum (charcoal-stripped, diluted)
T3 sequence (P08185 23-405): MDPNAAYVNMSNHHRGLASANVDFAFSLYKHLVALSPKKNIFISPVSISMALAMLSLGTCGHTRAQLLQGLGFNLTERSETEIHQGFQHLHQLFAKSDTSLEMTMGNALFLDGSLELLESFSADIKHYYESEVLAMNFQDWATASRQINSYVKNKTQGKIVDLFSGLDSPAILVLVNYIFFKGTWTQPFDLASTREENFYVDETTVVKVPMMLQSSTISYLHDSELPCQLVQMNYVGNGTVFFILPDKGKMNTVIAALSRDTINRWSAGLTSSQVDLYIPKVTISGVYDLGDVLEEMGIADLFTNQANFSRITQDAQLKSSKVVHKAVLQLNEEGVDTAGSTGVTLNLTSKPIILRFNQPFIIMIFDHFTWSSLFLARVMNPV
Description: as §1, §2

In the case of `CC(=O)[C@H]1CC[C@H]2[C@@H]3CCC4=CC(=O)CC[C@]4(C)[C@H]3[C@H](OC(=O)CCC(=O)NCCCC[C@@H](NC(=O)[C@H](Cc3ccc(O)cc3)NC(=O)[C@H](CO)NC(=O)[C@H](Cc3c[nH]c4ccccc34)NC(=O)[C@H](Cc3c[nH]cn3)NC(=O)[C@@H]3CCC(=O)N3)C(=O)N[C@@H](CC(C)C)C(=O)N[C@@H](CCCNC(=N)N)C(=O)N3CCC[C@H]3C(=O)NCC(N)=O)C[C@]12C` [GnRH agonist-progesterone conjugate, [DLys^6]GnRH conjugated to 11α-hydroxyprogesterone 11-succinate at the ε amine group of the D-Lys at position 6], the EC50 (rat type I GnRHR) is reported as 0.52 nM, the EC50 [1] is reported as 0.29 nM and the “second phase half-life (metabolism and renal clearance)” value [2] is reported as 53 ± 13 min. For the same compound, the IC50 [3] was 0.29 nM and the IC50 [4] was 1200 nM.
